For one compound, hydrophilicity/water solubility results are on record in patent publication US20240050421A1, “PHARMACEUTICAL FORMULATIONS OF A PHENOLIC TRPV1 AGONIST PRODRUG” (Concentric Analgesics, Inc., priority 2020, published 2024).

A short description of the data set: Water solubility / hydrophilicity compared with capsaicin. Type of data set: physicochemical. The conditions noted are these: general statement, no method or figures given.

For `CNCC1CCCCN1C(=O)Oc1ccc(CNC(=O)CCCC/C=C/C(C)C)cc1OC.Cl` (stereo not shown) [Compound 1, (E)-2-methoxy-4-((8-methylnon-6-enamido)methyl)phenyl 2-((methylamino)methyl)piperidine-1-carboxylate], the hydrophilicity/water solubility result is “significantly higher hydrophilicity/water solubility than capsaicin”.
